One may read the melting point as the temperature of the solid-liquid transition.

SMILES strings stand for the structures.

In the case of `COc1ccc(/C=C2/C(=O)NC(=S)N2C)cc1O` [4d, (5Z)-5-(3-Hydroxy-4-methoxybenzylidene)-1-methyl-2-thioxoimidazolidin-4-one], the melting point fell in the range of 203 to 205 °C.

Values taken from publication PMC6264224, “A Practical Approach to New (5Z) 2-Alkylthio-5-arylmethylene-1-methyl-1,5-dihydro-4H-imidazol-4-one Derivatives” (Molecules, 2011).
